Laboratory results taken from ChEMBL document CHEMBL3132743, “Synthesis of hetero annulated carbazoles: exploration of in vitro cytotoxicity and molecular docking studies” (Medchemcomm, 2013).

Columns and labels:
HeLa [1] = experiment: Cytotoxicity against human HeLa cells after 48 hrs by MTT assay; assay type: functional, cell-based
MCF7 = experiment: Cytotoxicity against human MCF7 cells after 48 hrs by MTT assay; assay type: functional, cell-based; settings: MCF7, 48 h
HeLa [2] = experiment: Ratio of ellipticine IC50 to compound IC50 for human HeLa cells; assay type: functional

Structure (SMILES)	IC50 (HeLa [1]) [µM]	IC50 (MCF7) [µM]	Ratio IC50 (HeLa [2])
Cc1ccc2[nH]c3c(c2c1)CC/C(=C\c1cc2c(ccc4ccccc42)nc1Cl)C3=O	35.8	> 100	–
O=C1/C(=C/c2cc3c(ccc4ccccc43)nc2Cl)CCc2c1[nH]c1ccc(Cl)cc21	32.5	75.5	–
O=C1/C(=C/c2cc3c(ccc4ccccc43)nc2Cl)CCc2c1[nH]c1ccccc21	42.3	> 100	–
Cc1ccc2[nH]c3c(c2c1)CCc1c-3noc1-c1cc2c(ccc3ccccc32)nc1Cl	26.1	67.9	–
Clc1ccc2[nH]c3c(c2c1)CCc1c-3noc1-c1cc2c(ccc3ccccc32)nc1Cl	22.3	55.1	–
Clc1nc2ccc3ccccc3c2cc1-c1onc2c1CCc1c-2[nH]c2ccccc12	27.5	70.5	–
CCOc1nc2c(c(-c3cc4c(ccc5ccccc54)nc3Cl)c1C#N)CCc1c-2[nH]c2ccc(C)cc12	9.63	37.4	–
CCOc1nc2c(c(-c3cc4c(ccc5ccccc54)nc3Cl)c1C#N)CCc1c-2[nH]c2ccc(Cl)cc12	8.11	34.5	1.21
CCOc1nc2c(c(-c3cc4c(ccc5ccccc54)nc3Cl)c1C#N)CCc1c-2[nH]c2ccccc12	12.3	46.6	–
Cc1ccc2[nH]c3c(ccc4c(-c5cc6c(ccc7ccccc76)nc5Cl)nc(N)nc43)c2c1	14.8	39.4	–
Nc1nc(-c2cc3c(ccc4ccccc43)nc2Cl)c2ccc3c4cc(Cl)ccc4[nH]c3c2n1	12.4	32.6	–
Nc1nc(-c2cc3c(ccc4ccccc43)nc2Cl)c2ccc3c4ccccc4[nH]c3c2n1	18.6	42.9	–
Cc1c2ccncc2c(C)c2c1[nH]c1ccccc12 [ELLIPTECINE]	9.81	16.7	–
